Reference: the supplement of paper PMC7801607

Legend:
HepG2-A16-CD81 = assay: CC50; higher = less toxic
Procedure: (§1)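 Dose-response IC50s: P. falciparum NF54 asexual (pLDH, 72 h; 6 means >6 µM), Dd2 asexual (SYBR Green I, 72 h, 1536-well; 5 means >5 µM), NF54 stage IV/V gametocytes (luciferase 48 h, ATP 24 h, PrestoBlue 48 h), P. berghei liver stage in HepG2-A16-CD81 (luciferase, 48 h; 5 means >5 µM), HepG2 CC50 (CellTiter-Glo; 5 means >5 µM).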

[1] = system: Plasmodium falciparum Dd2 asexual blood stage
[2] = system: Plasmodium falciparum NF54 asexual blood stage
[3] = system: Plasmodium berghei ANKA liver stage in HepG2-A16-CD81
[4] = system: Plasmodium falciparum NF54 stage IV/V gametocytes
Procedure: as §1

[5] = system: Plasmodium falciparum NF54 stage IV/V gametocytes; remark: listed apart in the source
Procedure: as §1

IC50 [1] [nM] | IC50 [2] [nM] | IC50 [3] [nM] | IC50 (ATP bioluminescence) [4] [nM] | IC50 (luciferase reporter) [5] [nM] | SMILES | CC50 (HepG2-A16-CD81) [nM]
23 | 109 | 2170 | 824 | 1030 | CCCCC(CC)CNC(=N)NC(=N)NCCCCCCNC(=N)NC(=N)NCC(CC)CCCC (stereo unspecified) | 4140
776 | 4000 | 1060 | – | 1670 | CN(C)CCCOc1ccc(-c2ccc3ncc4c(c3c2)n(C2CCOCC2)c(=O)n4C)cn1 | > 5000
> 5000 | 3460 | – | 5020 | 15900 | Oc1cccc(C(Nc2nccs2)c2ccc3cccnc3c2O)c1 (stereo unspecified) | –
4050 | – | – | 4260 | 28600 | CCOC(=O)Nc1cc(NC(C)CC(C)CN(CC)CC)c2nc(-c3ccccc3)c(-c3ccccc3)nc2n1 (stereo unspecified) | –
2850 | 878 | > 5000 | – | – | CC(C)/N=c1\cc2n(-c3ccc(Cl)cc3)c3ccccc3nc-2cc1Nc1ccc(Cl)cc1 | > 5000
51.6 | 383 | > 5000 | 2910 | 7640 | CCC(C)NCC(O)Cn1c2ccc(Cl)cc2c2cc(Cl)ccc21 (stereo unspecified) | > 5000
69.4 | 62.1 | 1990 | – | 103 | Cn1cc(NC(=O)c2cc(NC(=O)c3ccc(/C=C/c4cnc5ccccc5c4)cc3)cn2C)cc1C(=O)NCCN1CCOCC1 | > 5000
> 5000 | – | – | – | 1080 | CC(C)(C)c1ccc(Oc2ccc(N)cc2)cc1 | –
506 | 940 | 3340 | 1400 | 7690 | COc1cc(C)c2c(Oc3cccc(C(F)(F)F)c3)c(OC)cc(NC(C)CCCN)c2n1 (stereo unspecified) | > 5000
> 5000 | – | – | – | 11400 | CCOc1ccc(C(=O)NCCc2ccccc2)cc1 | –
7 | 58.5 | 56.1 | – | – | Cc1[nH]c2ccccc2c1CCNCc1ccc(/C=C/C(=O)NO)cc1 | 141
3380 | 1480 | > 5000 | 4230 | 7650 | Clc1cc(Cl)c2c(c1)CCc1ccccc1C2n1ccnc1 (stereo unspecified) | > 5000
236 | 986 | 128 | 1530 | 5210 | CC[C@H](NC(=O)[C@H](C)NC)C(=O)N1C[C@@H](O)C[C@H]1Cc1c(-c2[nH]c3cc(F)ccc3c2C[C@@H]2C[C@H](O)CN2C(=O)[C@H](CC)NC(=O)[C@H](C)NC)[nH]c2cc(F)ccc12 | > 5000
> 5000 | > 6000 | – | 496 | 4030 | Cc1cccc(C)c1C(=O)Nc1nc(-c2ccccn2)cc2ccccc12 | –
831 | 1070 | 2790 | 340 | 3820 | N=c1n(CCN2CCCCC2)c2ccccc2n1CC(O)COc1ccc(Cl)cc1Cl (stereo unspecified) | > 5000
50.6 | 30.1 | > 5000 | – | – | CCN(CC)CCCC(C)Nc1ccnc2cc(Cl)ccc12 (stereo unspecified) | > 5000

IC50 [1] [nM] | IC50 [2] [nM] | IC50 [3] [nM] | IC50 (ATP bioluminescence) [4] [nM] | IC50 (luciferase reporter) [5] [nM] | SMILES | CC50 (HepG2-A16-CD81) [nM]
3360 | 2210 | – | – | 6070 | N=C(N)NCCCCC(=O)Nc1cc(C(F)(F)F)cc(NC(=O)c2cc(C(=O)Nc3cc(C(F)(F)F)cc(NC(=O)CCCCNC(=N)N)c3O[C@@H]3CCNC3)ncn2)c1O[C@@H]1CCNC1 | –
1900 | 1390 | 2510 | 1660 | – | CN1CCN(Cc2ccc(-c3cnc4[nH]cc(-c5ccc6[nH]ccc6c5)c4c3)cc2)CC1 | > 5000
792 | 678 | > 5000 | 350 | 3800 | CCN(CC)CCn1c(=N)n(CC(O)COc2ccc(Cl)cc2Cl)c2ccccc21 (stereo unspecified) | > 5000
> 5000 | 3010 | – | 1130 | 46300 | Cc1nc2ccc(Oc3ccccc3)cc2c2c1CCN2CCc1ccccc1 | –
> 5000 | – | – | 2160 | 25700 | O=C1C=C(c2ccccc2)S(=O)(=O)c2ccccc21 | –
19.4 | 44.8 | > 5000 | – | 480 | O=C(Nc1cccc(C2=NCCN2)c1)c1ccc(-c2ccc(C(=O)Nc3cccc(C4=NCCN4)c3)cc2)cc1 | > 5000
> 5000 | – | – | – | 3920 | C(=C\c1nc2ccccc2[nH]1)/c1ccc2c(c1)OCO2 | –
> 5000 | – | – | – | 30600 | O=C(Nc1ccc(F)cc1)c1nn(-c2ccccc2)c(=O)cc1Cl | –
3320 | 2630 | – | 824 | 7080 | O=C(/C(=C/c1ccc(Cl)cc1Cl)n1ccnc1)c1ccc(Cl)cc1 | –
> 5000 | > 6000 | – | – | 31600 | N#Cc1c(F)c(Cl)c(NCc2ccccc2)c(C#N)c1F | –
1280 | 1640 | 642 | – | – | NC(=S)N/N=C/c1ncccc1N | > 5000
3150 | 1670 | – | – | 5400 | Oc1c(C(Nc2nc3ccccc3s2)c2ccc(OC(F)F)cc2)ccc2cccnc12 (stereo unspecified) | –
1740 | 1.7 | 4.22 | – | – | CCc1nc(N)nc(N)c1C#CC(C)c1cc(OC)cc(-c2ccncc2)c1 (stereo unspecified) | > 5000
55 | 49.5 | > 5000 | 79.9 | 152 | Nc1nc(Nc2ccc3nc(-c4ccc(F)cc4)cc(N)c3c2)cc(-c2ccccc2)n1 | > 5000
2050 | > 6000 | > 5000 | – | – | COc1nc2ccc(Br)cc2cc1[C@@H](c1ccccc1)[C@@](O)(CCN(C)C)c1cccc2ccccc12 | > 5000
